Publication PMC7822816, “Halo-fluorescein for photodynamic bacteria inactivation in extremely acidic conditions” (Nature Communications, 2021)

Key:
MRSA = experiment: IC50 / growth inhibition of photodynamic inactivation, MRSA; type: cell-based, methicillin-resistant S. aureus
[1] = Relative singlet oxygen quantum yield (1O2 phosphorescence, Rose Bengal standard); type: physicochemical; set-up: key: relative to Rose Bengal standard (ΦΔ = 0.75); conditions: pH = 10 media; relative, RB as the standard
Experimental: To permit the open-form structure of all fluorescein derivatives, all the measurements were carried out in pH = 10 media.
The singlet oxygen quantum yields (ΦΔ) of all fluorescein-based PSs were evaluated with Rose Bengal as the standard (ΦΔ = 0.75):1 ΦΔ=AsAbsorption/As(Emission)×ARB(Emission)/ARB(Absorption)×0.75 Here, the area of absorption (RB and PSs) was collected with an integrating sphere (λex = 510 nm), while the area of emission was obtained from the characterized 1270 nm ^1O2 phosphorescence emission. For collection of such emission, CH3CN and D2O mixed solvent (v (D2O): v (CH3CN) = 1:15, pH = 9.0, adjusted with 0.001 M NaOH) was used, since H2O can severely quench the singlet oxygen luminescence. For all the measurements, the concentrations of the PSs were set at 10 μM.
S6.3 Relative singlet oxygen quantum yield
The singlet O2 quantum yield of photosensitizers were measured by Fluolog-3 spectrofluorometer with an integration sphere (IS80, Labsphere) and NIR detector (Hamamatsu H-10330) in this work.
For better collection of the characterized singlet oxygen phosphorescence emission (1275 nm), CH3CN and D2O mixed solvent was used (H2O can severely quench the singlet oxygen luminescence). The 10 mM stock solutions in CH3CN and D2O mixed solvent (VCH3CN:VD2O = 15:1) were first prepared. The stock solutions were diluted to 10 μM, and the final volume was 2 mL. In addition, the CH3CN and D2O mixed solvent as blank was also prepared.
1. Turn on the instrument and the start software, the light source is xenon lamp.
2. From the experiment menu, selected spectra, emission. The 1O2 emission phosphorescence spectra are first measured.
3. The parameters setting are listed: a. Excitation wavelength: 510 nm

[2] = type: physicochemical; conditions: buffer, 5 min, pH 3
Experimental: Next, the influence of the added TIF to jucies after photodynamic sterilization was further investigated from the following two aspects. First, like many other dyes, TIF experienced photo-bleaching upon photo irradiation. As shown in Supplementary Fig. 69, in the presence of green LED irradiation (520 nm, 50 mW/cm^2), the absorbance of TIF decreased rapidly in 5 min (with ~22% remaining). In other words, most of the added TIF in juices is expected to lose the ability of ROS generation after the first photodynamic sterilization process. Second, the ingredients inside the juices before and after TIF-involved photodynamic sterilization were evaluated. Here, the investigations were concentrated on antioxidants due to the high activity of ROS[42]. Three representative antioxidants, namely, ascorbic acid (vitamin C), phenolic compounds, and flavonoid, were chosen. […] Besides, the color, flavor, and texture of the juices were roughly evaluated through visual observation and smelling (method supplied in the Chinese National Standard GB/T 31121-2014), no appreciable changes were observed before and after TIF-based photodynamic sterilization. […]
(1) The photo-bleaching of TIF. […] As can be seen from Figure R3 below, in the presence of green LED irradiation (520 nm, 50 mW/cm2), the absorbance of TIF decreased rapidly in 5 min (with ~22% remaining). […]

[3] = pH titration of halogenated fluorescein (pH0.5); type: physicochemical
Experimental: The pH0.5 values (the pH value when the open form reduce to the half of the maximum) of various fluorescein derivatives were determined experimentally through pH titration (Supplementary Figs. 6–16).
The pH of the solutions were adjusted through varying the ratios of citric acid and Na2HPO4 (pH 2.2–8.0), and further acidity was adjusted with concentrated HCl or 1 M NaOH. The absorption and fluorescence spectra of the resultant solutions were then collected.
Section S5. pH-dependent Properties of the Halogenated Fluoresceins.
S5.1 pH titration of halogenated fluorescein
Fluorescein derivatives (Supplementary Table 1) were dissolved in DMSO to obtain 1 mM stock solutions and then diluted with citric acid-Na2HPO4 buffer (100 mM) to 10
μM. The pH of the solutions were adjusted through varying the ratios of citric acid and Na2HPO4 (pH 2.2-8.0), and further acidity was adjusted with concentrated HCl or 1 M
NaOH. The absorption and fluorescence spectra of the resultant solutions were then

C. albicans = experiment: Fresh food preservation (infected tomato model); set-up: species or system Candida albicans
Description: Besides fruit juices, the potential of TIF for photo-assisted fresh food preservation was also investigated with tomato as the model (pH 3.0). […] Therefore, the food additive TIF is also promising for fresh food preservation.
Tomatoes were selected as the model for photo-assisted fresh food preservation. All the tomatoes were divided into six groups, and made a wound of ~7 cm^2 by hot water. […] Afterward, the tomatoes were stored at room temperature and then subjected to repeated irradiation at day 2. The total viable counts of bacteria on the infected tomatoes were measured in day 3.

E. coli = experiment: IC50 / growth inhibition of photodynamic inactivation, E. coli
Experimental: The bacteria were cultured overnight in a constant temperature oscillator (37 °C, 170 r/min, the specific culture conditions were listed in Supplementary Table 6). Suspensions of bacteria (100 μL, diluted 1000-folds, PBS) were added with different concentration PSs (final volume of 1 mL), and irradiated with LED (λ = 520 nm, 35 mW/cm^2) for 10 min. Then, the treated bacteria liquid (100 μL) were added into the culture medium and cultured in a 24-well plate. The OD600 of bacteria was measured to obtain the bacteria CFUs, and the survival rate were calculated as C/C0 × 100%, where C is the CFU of sample which treated with PSs and light, and C0 is the blank without any treatment. All photodynamic sterilizations were carried out in at least three replicates.
Growth inhibition of E. coli by different concentrations of TIF.
Irradiation: 520 nm green LED (6 mW/cm2), 10 min. Error bars = Standard Deviation (n=6).
Growth inhibition of Salmonella by different concentrations of
TIF. Irradiation: 520 nm green LED (6 mW/cm2), 10 min.

O=C(O)c1ccccc1-c1c2cc(I)c(=O)c(I)c-2oc2c(I)c(O)c(I)cc12 [TIF, 2′,4′,5′,7′-tetraiodofluorescein]
IC50 (MRSA; Staphylococcus aureus, 10 min, pH 2.5, LED 520 nm, 35 mW/cm^2, 10 min): 340 nM
Inhibition ratio (MRSA; dose 2.0 μM, 3 V/3 W, 6 mW/cm2, 10 min): > 97.1%
singlet oxygen quantum yield (ΦΔ) [1]: 0.64
absorbance remaining after photo-bleaching [2]: ~ 22%
pH0.5 ([3]; 2% DMSO citric acid-disodium hydrogen phosphate buffer (Supplementary Table 4)): 4.07
lowering of pH0.5 compared with fluorescein ([3]; difference to fluorescein (6.09)): 2.02 units
wound infection of tomatoes, without light (C. albicans; 10 μM in pH 3.0 PBS, TIF only): different magnitudes of wound infection
colony counting of infected tomatoes (C. albicans; day 3, 10 μM, pH 3.0, 520 nm LED): excellent antimicrobial ability
Inhibition ratio (E. coli; E.coli, dose 0.5 μM, 3 V/3 W, 6 mW/cm2, 10 min): > 99.3%
IC50 (E. coli; Escherichia coli, 10 min, pH 2.5, read-out: IC50 (E. coli)): 210 nM
